Test results from patent US20230331690A1, “THC DERIVATIVES, ORAL DOSAGE FORMS COMPRISING SAME, USES THEREOF FOR TREATING DISEASES AND DISORDERS AND SYNTHESIS THEREOF” (BAR-ILAN UNIVERSITY, priority 2020, published 2023).
Where “and” joins values, the source holds several entries; their conditions need not be identical. Equal values may be shown once. Read-outs that look alike come from different tables or passages of the source.

What was measured:
[1] = tested on: mice; experiment: Hot plate assay, withdrawal reflex latency (WRL); type: in vivo; conditions: for Hot plate Time: per animal
[2] = Pharmacokinetics, blood samples (Example 17); conditions: for concentration at 0.5 h: mouse, blood, ip, Component in the blood, label = analyte
Description: The pharmacokinetics of 9-CD3-(8-D2)-THC compared to natural THC was evaluated using both intraperitoneal i.p. injection and an oral gavage administration for each material. The mice were divided into four groups containing 6 mice (24 mice total). For each group of mice, a blood sample was withdrawn at baseline (t=0), and half-hour intervals (t=0.5, 2 and 5 h) after administration of the drug. Three mice, half of each group, were euthanized with CO2 after 5 h and their organs (brain and liver) were collected. From the second half of each group, another blood sample was withdrawn 24 h after administration, and then these animals were euthanized and the brain and liver were collected for analysis.

[3] = Pharmacokinetics, liver samples (Example 17); type: in vivo, mice; conditions: for concentration at 24 h / concentration at 5 h: mouse, liver; for concentration at 24 h: ip; for concentration at 5 h: po
[4] = Persistence over time, blood samples (Example 18); type: in vivo, mice
Description: (§1) Blood samples from each mouse were collected at each time point for the pharmacokinetics tests. For 6 h after administrating of all tested drugs, and after testing their WRL on the hot plate, half the mice (n=3) of each group were sacrificed, and the liver and brain of each animal were taken for pharmacokinetics tests. From the remaining mice, blood samples were acquired at 12 h after administration for pharmacokinetics tests. At 24 h after drug administration, and after checking the WRL again, second half of each group of mice were sacrificed, and the liver and brain of each animal were taken for pharmacokinetics tests.

[5] = Persistence over time, brain samples postmortem (Example 18); type: in vivo, mice
Description: as §1
(§2) All the results of the brain and liver samples, which were taken postmortem 6 h or 24 h after administration (n=3) are summarized in Tables 12-13.

[6] = Persistence over time, liver samples postmortem (Example 18); type: in vivo, mice; conditions: mouse, liver, oral, read-out: Average results for 3 mice (Table 13, liver); for concentration at 6 h: died at 6 h; for concentration at 24 h: died at 24 h, number in brackets = mice with a value
Description: as §1, §2

[7] = Body temperature by rectal thermometer (hypothermia)
[8] = 8 mg/Kg oral, t = 6 h, listed as THC-d5

[2H]C([2H])([2H])C1=C[C@H]2c3c(O)cc(CCCCC)cc3OC(C)(C)[C@@H]2CC1([2H])[2H] [9-CD3-(8-D2)-THC]
Hot plate Avg. 6 mice ([1]; 2 mg/Kg oral, t = 0.5 h): 9.52 s
Hot plate Time ([1]; 2 mg/Kg oral, t = 0.5 h, listed as THC-d5): 9.4 s and 9.3 s and 8.9 s and 10.9 s and 12.0 s and 6.6 s
Hot plate Avg. 6 mice ([1]; 2 mg/Kg oral, t = 3 h): 10.97 s
Hot plate Time ([1]; 2 mg/Kg oral, t = 3 h, listed as THC-d5): 7.2 s and 12.1 s and 8.5 s and 19.3 s and 13.1 s and 5.6 s
Hot plate Avg. 6 mice ([1]; 2 mg/Kg oral, t = 6 h): 10.07 s
Hot plate Time ([1]; 2 mg/Kg oral, t = 6 h, listed as THC-d5): 9.3 s and 14.5 s and 4.5 s and 15.8 s and 8.9 s and 7.4 s
Hot plate Avg. 3 mice ([1]; 2 mg/Kg oral, t = 24 h): 8.3 s
Hot plate Time ([1]; 2 mg/Kg oral, t = 24 h, listed as THC-d5): 7.9 s and 9.5 s and 7.5 s
increase in the WRL compared to baseline ([1]; 2 mg/kg, 0.5 h): 3%
change in average WRL compared to baseline ([1]; 2 mg/kg, 3 h): +19%
change in average WRL compared to baseline ([1]; 2 mg/kg, 6 h): +9%
Hot plate Avg. 6 mice ([1]; 4 mg/Kg oral, t = 0.5 h): 14.03 s
Hot plate Time ([1]; 4 mg/Kg oral, t = 0.5 h, listed as THC-d5): 19.2 s and 10.3 s and 13.0 s and 9.5 s and 15.8 s and 16.4 s
Hot plate Avg. 6 mice ([1]; 4 mg/Kg oral, t = 3 h): 13.77 s
Hot plate Time ([1]; 4 mg/Kg oral, t = 3 h, listed as THC-d5): 17.5 s and 11.8 s and 12.1 s and 9.2 s and 12.5 s and 19.5 s
Hot plate Avg. 6 mice ([1]; 4 mg/Kg oral, t = 6 h): 15.38 s
Hot plate Time ([1]; 4 mg/Kg oral, t = 6 h, listed as THC-d5): 8.7 s and 19.9 s and 12.1 s and 8.3 s and 22.5 s and 20.8 s
Hot plate Avg. 3 mice ([1]; 4 mg/Kg oral, t = 24 h): 14.27 s
Hot plate Time ([1]; 4 mg/Kg oral, t = 24 h, listed as THC-d5): 5.2 s and 21.5 s and 16.1 s
increase in the WRL compared to baseline ([1]; 4 mg/kg, 0.5 h): 68%
change in average WRL compared to baseline ([1]; 4 mg/kg, 3 h): +65%
change in average WRL compared to baseline ([1]; 4 mg/kg, 6 h): +85%
Hot plate Avg. 6 mice ([1]; 8 mg/Kg oral, t = 0.5 h): 15.42 s
Hot plate Time ([1]; 8 mg/Kg oral, t = 0.5 h, cut-off 30 s, listed as THC-d5): 19.9 s and 24.5 s and 11.1 s and 17.5 s and 10.1 s and 9.4 s
Hot plate Avg. 6 mice ([1]; 8 mg/Kg oral, t = 3 h): 22.1 s
Hot plate Time ([1]; 8 mg/Kg oral, t = 3 h, cut-off 30 s, listed as THC-d5): 30.0 sec. (3×) and 6.0 sec. and 26.2 sec. and 10.4 sec.
Hot plate Avg. 6 mice ([1]; 8 mg/Kg oral, t = 3 h, listed as THC-d5): 22.10 s
Hot plate Avg. 6 mice ([1]; 8 mg/Kg oral, t = 6 h): 8.4 s
Hot plate Time [1, 8]: 6.4 s and 9.8 s and 11.5 s and 7.1 s and 13.4 s and 2.3 s
Hot plate Avg. 6 mice [1, 8]: 8.42 s
Hot plate Avg. 3 mice ([1]; 8 mg/Kg oral, t = 24 h): 20.8 s
animal outcome printed in the hot plate Time column ([1]; 8 mg/Kg oral, t = 24 h, animal 20): Died
Hot plate Time ([1]; 8 mg/Kg oral, t = 24 h, cut-off 30 s, listed as THC-d5): 30.0 s and 11.2 s
Hot plate Avg. 3 mice ([1]; 8 mg/Kg oral, t = 24 h, listed as THC-d5): 20.6 s
analgesic effect compared to natural THC and morphine ([1]; 8 mg/kg oral, up to 24 h after administration): stronger and longer lasting analgesic effect
average increase in WRL compared to baseline (t=0) ([1]; 8 mg/kg, 0.5 h): 67.6%
change in average WRL compared to t=0 at baseline ([1]; 8 mg/kg, 3 h): 140%
average blood concentration, times higher than THC ([2]; 0.5 h after i.p. administration): 1.87 times
concentration at 0.5 h ([2]; Average, 0.5 h after i.p. injection of THC or THC-d5, n=6 (THC-d5 n=5)): 110 ng/mL
concentration at 0.5 h ([2]; mouse 1, 0.5 h after i.p. injection of THC or THC-d5): 183 ng/mL
concentration at 0.5 h ([2]; mouse 2, 0.5 h after i.p. injection of THC or THC-d5): 93.8 ng/mL
concentration at 0.5 h ([2]; mouse 4, 0.5 h after i.p. injection of THC or THC-d5): 141 ng/mL
concentration at 0.5 h ([2]; mouse 5, 0.5 h after i.p. injection of THC or THC-d5): 74.1 ng/mL
concentration at 0.5 h ([2]; mouse 6, 0.5 h after i.p. injection of THC or THC-d5): 58.9 ng/mL
average liver concentration, times more than THC ([3]; 5 h after oral gavage administration): 1.59 times
average liver concentration, times more than THC ([3]; 24 h after i.p. administration): 1.40 times
concentration at 24 h ([3]; 24 h after i.p. administration, n=3, read-out: average liver concentration): 10.7 ng/g
concentration at 24 h ([3]; 24 h after i.p. injection of THC or THC-d5, label = analyte, n=3, read-out: Component in the liver, Average): 10.7 ng/mL
concentration at 24 h ([3]; 24 h after i.p. injection of THC or THC-d5, label = analyte, read-out: Component in the liver, mouse 1): 12.4 ng/mL
concentration at 24 h ([3]; 24 h after i.p. injection of THC or THC-d5, label = analyte, read-out: Component in the liver, mouse 2): 15 ng/mL
concentration at 24 h ([3]; 24 h after i.p. injection of THC or THC-d5, label = analyte, read-out: Component in the liver, mouse 3): 4.64 ng/mL
concentration at 5 h ([3]; 5 h after oral gavage administration of THC or THC-d5, label = analyte, n=3, read-out: Component in the liver, Average): 5.99 ng/mL
concentration at 5 h ([3]; 5 h after oral gavage administration of THC or THC-d5, label = analyte, read-out: Component in the liver, mouse 1): 5.57 ng/mL
concentration at 5 h ([3]; 5 h after oral gavage administration of THC or THC-d5, label = analyte, read-out: Component in the liver, mouse 2): 6.28 ng/mL
concentration at 5 h ([3]; 5 h after oral gavage administration of THC or THC-d5, label = analyte, read-out: Component in the liver, mouse 3): 6.13 ng/mL
concentration at 5 h ([3]; 5 h after oral gavage administration, n=3, read-out: average liver concentration): 5.99 ng/g
Average results, blood samples ([4]; 4 mg/kg administration, Time 3 h, label = analyte): 1.44 (4/4) ng/mL
Average results, blood samples ([4]; 8 mg/kg administration, Time 12 h (3 mice), label = analyte): 0.15 (1/1) ng/mL
metabolic stability compared to THC ([4]; conclusion from mouse blood, brain and liver samples): better metabolic stability than THC
concentration at 0.5 h ([4]; mouse, blood, oral, 4 mg/kg administration of THC or THC-d5, Time 0.5 h, label = analyte): 10.4 ng/mL
concentration at 0.5 h ([4]; mouse, blood, oral, 8 mg/kg administration of THC or THC-d5, Time 0.5 h, label = analyte): 22.5 ng/mL
concentration at 3 h ([4]; mouse, blood, oral, 8 mg/kg administration, Time 3 h, label = analyte): 7.27 ng/mL
concentration at 6 h ([4]; mouse, blood, oral, 8 mg/kg administration, Time 6 h, label = analyte): 1.81 ng/mL
presence in the brain ([5]; 24 h after administration, highest concentration of 8 mg/kg): evidence for the synthetic material in the brain
concentration at 6 h ([5]; mouse, brain, oral, 8 mg/kg administered, died at 6 h, number in brackets = mice with a value, read-out: Average results for 3 mice - brain samples): 48 ng/g
concentration at 6 h ([6]; 2 mg/kg administered): 3.31 ng/g
concentration at 24 h ([6]; 2 mg/kg administered): 0.75 ng/g
concentration at 6 h ([6]; 4 mg/kg administered): 16.1 ng/g
concentration at 6 h ([6]; 8 mg/kg administered): 57.8 ng/g
concentration at 24 h ([6]; 8 mg/kg administered): 1.64 ng/g
time of strongest effect on body temperature after drug administration ([7]; high concentration of 8 mg/kg oral): 3 h
hypothermia effect (body temperature) ([7]; medium concentration of 4 mg/kg oral): very clear hypothermia effect
Body temperature, Avg. change compared to t = 0, at t = 3 h ([7]; mice, avg. of 6 mice, 8 mg/kg (groups C+D), t = 3 h after administration): −2.6 °C
Animal status in the Temp. column at t = 24 h ([7]; mice, group D, 8 mg/kg, single animal, t = 24 h): Died
